Reference: ChEMBL document CHEMBL4033787, “Glutathione S-Transferase π-Activatable O2-(Sulfonylethyl Derived) Diazeniumdiolates Potently Suppress Melanoma in Vitro and in Vivo” (J Med Chem, 2018)
Activity calls are given as the source filed them. No cut-off for these calls is given here.

Columns and labels:
MCF7 [1] = assay: Antiproliferative activity against human MCF7 cells after 72 hrs by MTT assay; assay type: functional, cell-based; settings: MCF7, 72 h
B16 [2] = assay: Antiproliferative activity against mouse B16 cells after 72 hrs by MTT assay; assay type: functional, cell-based; settings: B16, 72 h
B16 [3] = assay: Antiproliferative activity against mouse B16 cells at 1 uM after 72 hrs by MTT assay; assay type: functional, cell-based
HT-29 = assay: Antiproliferative activity against human HT-29 cells at 1 uM after 72 hrs by MTT assay; assay type: functional, cell-based
MCF7 [4] = assay: Antiproliferative activity against human MCF7 cells at 1 uM after 72 hrs by MTT assay; assay type: functional, cell-based
9L-2 = assay: Antiproliferative activity against rat 9L-2 cells at 1 uM after 72 hrs by MTT assay; assay type: functional, cell-based
B16 [5] = assay: Induction of nitration of mitochondrial cytochrome C in mouse B16 cells assessed as increase in nitrated cytochrome C levels at 10 uM after 24 hrs in presence of NO scavenger hemoglobin by Western blot analysis; assay type: functional, cell-based
B16 [6] = assay: Antiproliferative activity against mouse B16 cells after 72 hrs in presence of equimolar concentration of 4-hydroxy-1-(oxido-NNO-azoxy)piperidine by MTT assay; assay type: functional, cell-based; settings: B16, 72 h
B16 [7] = assay: Antitumor activity against mouse B16 cells implanted in nude mouse assessed as inhibition of tumor growth at 7.5 mg/kg, iv administered every other day for 20 days relative to control; assay type: functional; settings: 480 h, read-out: TGI
B16 [8] = assay: Induction of nitration of mitochondrial cytochrome C in mouse B16 cells assessed as increase in nitrated cytochrome C levels at 10 uM after 24 hrs by Western blot analysis; assay type: functional, cell-based
B16 [9] = assay: Antitumor activity against mouse B16 cells implanted in iv dosed nude mouse assessed as reduction in tumor volume administered every other day for 20 days; assay type: functional, organism-based
B16 [10] = assay: Antiproliferative activity against mouse B16 cells at 3 uM after 24 hrs in presence of GST-Pi inhibitor etacrynic acid by MTT assay; assay type: functional, cell-based
[11] = Stability of compound in normal saline after 500 mins by UV spectrophotometric analysis; assay type: physicochemical; settings: buffer
B16 [12] = assay: Antiproliferative activity against mouse B16 cells at 3 uM after 24 hrs in presence of NO scavenger carboxy-PTIO by MTT assay; assay type: functional, cell-based
B16 [13] = assay: Induction of nitration of mitochondrial cytochrome C in mouse B16 cells implanted in iv dosed mouse assessed as increase in nitrated cytochrome C levels administered every other day for 20 days by Western blot analysis; assay type: functional, organism-based
[14] = Substrate activity at GST-Pi in mouse JB6 Cl 30-7b cells assessed as NO release at 20 uM after 8 hrs by Griess assay; assay type: ADME, cell-based
[15] = Drug metabolism assessed as GST-Pi (unknown origin)-mediated compound decomposition at 40 uM by UV spectrophotometric analysis; assay type: ADME; settings: human, TDE = time-dependent effect
B16 [16] = assay: Antitumor activity against mouse B16 cells implanted in nude mouse assessed as inhibition of tumor growth at 30 mg/kg, iv administered every other day for 20 days relative to control; assay type: functional; settings: 480 h, read-out: TGI
B16 [17] = assay: Antiproliferative activity against mouse B16 cells at 3 uM after 24 hrs in presence of NO scavenger hemoglobin by MTT assay; assay type: functional, cell-based
[18] = Drug metabolism assessed as GSTalpha (unknown origin)-mediated compound decomposition at 40 uM by UV spectrophotometric analysis; assay type: ADME; settings: human
[19] = Substrate activity at GST-Pi in mouse B16 cells assessed as increase in NO release at 20 uM by Griess assay; assay type: ADME, cell-based; settings: TDE = time-dependent effect
Mus musculus [20] = assay: Toxicity in mouse assessed as mortality at 7.5 to 30 mg/kg, iv dosed for every other day for 20 days; assay type: organism-based; settings: in vivo, 480 h
[21] = Substrate activity at GST-Pi in mouse B16 cells assessed as increase in NO release after 8 hrs by DAF-FM DA dye-based flow cytometric analysis; assay type: ADME, cell-based
B16 [22] = assay: Antitumor activity against mouse B16 cells implanted in iv dosed nude mouse assessed as reduction in tumor weight administered every other day for 20 days; assay type: functional, organism-based
B16 [23] = assay: Antitumor activity against mouse B16 cells implanted in nude mouse assessed as inhibition of tumor growth at 15 mg/kg, iv administered every other day for 20 days relative to control; assay type: functional; settings: 480 h, read-out: TGI
[24] = Antiproliferative activity against mouse JB6 Cl 30-7b cells after 72 hrs by MTT assay; assay type: cell-based
Mus musculus [25] = assay: Toxicity in mouse assessed as weight loss at 7.5 to 30 mg/kg, iv dosed for every other day for 20 days; assay type: organism-based; settings: in vivo, 480 h
[26] = Selectivity index, ratio of IC50 for mouse JB6 Cl 30-7b cells to IC50 for mouse B16 cells; assay type: functional
B16 [27] = assay: Antiproliferative activity against mouse B16 cells after 72 hrs in presence of equimolar concentration of (S)-2-amino-5-((R)-1-(carboxymethylamino)-1-oxo-3-(vinylsulfonyl)propan-2-ylamino)-5-oxopentanoic acid by MTT assay; assay type: functional, cell-based; settings: B16, 72 h

Compound `N[C@@H](CCC(=O)N[C@@H](CS(=O)(=O)CCOP(=O)(N(CCCl)CCCl)N(CCCl)CCCl)C(=O)N[C@@H](C(=O)O)c1ccccc1)C(=O)O` [CANFOSFAMIDE] has an IC50 (MCF7 [1]) of 870 nM and an IC50 (B16 [2]) of 710 nM.
For `CCOC(=O)N1CCN(/[N+]([O-])=N/OCCS(=O)(=O)C[C@H](NC(=O)CC[C@H](N)C(=O)OC)C(=O)NCC(=O)OC)CC1`, the IC50 (MCF7 [1]) was 338 nM, the IC50 (B16 [2]) was 195 nM and the Activity (B16 [3]) was “Active”. The Activity (HT-29) was “Active”, the Activity (MCF7 [4]) was “Active” and the Activity (9L-2) was “inactive”.
With `C=CS(=O)(=O)C[C@H](NC(=O)CC[C@H](N)C(=O)O)C(=O)NCC(=O)O` the Activity (B16 [5]) was “inactive”, the IC50 (B16 [2]) was 1910 nM and the IC50 (B16 [6]) was 553 nM.
With `N[C@@H](CCC(=O)N[C@@H](CS(=O)(=O)CCO/N=[N+](\[O-])N(CCCl)CCCl)C(=O)NCC(=O)O)C(=O)O` the IC50 (MCF7 [1]) was 611 nM, the IC50 (B16 [2]) was 404 nM and the Activity (B16 [3]) was “Active”. The Activity (HT-29) was “Active”, the Activity (MCF7 [4]) was “Active” and the Activity (9L-2) was “inactive”.
In the case of `CCOC(=O)CNC(=O)[C@H](CS(=O)(=O)CCO/N=[N+](\[O-])N(CCCl)CCCl)NC(=O)CC[C@H](N)C(=O)OCC`, the Activity (B16 [3]) is reported as “Active”, the Activity (HT-29) is reported as “Active” and the Activity (MCF7 [4]) is reported as “Active”. For the same compound, the Activity (9L-2) was “inactive”.
With `N[C@@H](CCC(=O)N[C@@H](CS(=O)(=O)CCO/N=[N+](\[O-])N1CCC(O)CC1)C(=O)NCC(=O)O)C(=O)O` the inhibition in vivo at 7.5 mg/kg (B16 [7]) was 42.3%, the Activity (B16 [8]) was “Active” and the IC50 (MCF7 [1]) was 306 nM. For the same compound, the Activity (B16 [5]) was “Active”, the Activity (B16 [9]) was “Dose-dependent effect” and the Activity (B16 [10]) was “inactive”. The Stability [11] was “Stable”, the IC50 (B16 [2]) was 184 nM and the Activity (B16 [12]) was “inactive”. For the same compound, the Activity (B16 [13]) was “Dose-dependent effect”, the Activity (B16 [3]) was “Active” and the Drug metabolism [14] was “Metabolite_Notdetected”. For the same compound, the Drug metabolism [15] was “Tde”, the inhibition in vivo at 30 mg/kg (B16 [16]) was 84.8% and the Activity (B16 [17]) was “inactive”. For the same compound, the Activity (HT-29) was “Active”, the Drug metabolism [18] was “Metabolite_Notdetected” and the Drug metabolism [19] was “Tde”. For the same compound, the Activity (Mus musculus [20]) was “Non-Toxic”, the Drug metabolism [21] was “Dose-dependent effect” and the Activity (B16 [22]) was “Dose-dependent effect”. For the same compound, the inhibition in vivo at 15 mg/kg (B16 [23]) was 76.2%, the IC50 [24] was 1400 nM and the Activity (Mus musculus [25]) was “Non-Toxic”. For the same compound, the Activity (MCF7 [4]) was “Active”, the “Ratio IC50” value [26] was 8 and the Activity (9L-2) was “inactive”.
With `CCOC(=O)N1CCN(/[N+]([O-])=N/OCCS(=O)(=O)C[C@H](NC(=O)CC[C@H](N)C(=O)O)C(=O)NCC(=O)O)CC1` the Activity (B16 [3]) was “Active”, the Activity (HT-29) was “Active” and the Activity (MCF7 [4]) was “Active”. The Activity (9L-2) was “inactive”.
In the case of `COC(=O)CNC(=O)[C@H](CS(=O)(=O)CCO/N=[N+](\[O-])N(CCCl)CCCl)NC(=O)CC[C@H](N)C(=O)OC`, the Activity (B16 [3]) is reported as “Active”, the Activity (HT-29) is reported as “Active” and the Activity (MCF7 [4]) is reported as “Active”. The Activity (9L-2) was “inactive”.
`CN(C)/N=N/c1[nH]cnc1C(N)=O` [DACARBAZINE] showed an inhibition in vivo at 15 mg/kg (B16 [23]) of 49.9%.
With `N[C@@H](CCC(=O)N[C@@H](CS(=O)(=O)CCO/N=[N+](\[O-])N1CCCC1CO)C(=O)NCC(=O)O)C(=O)O` (stereo not given in full) the Activity (B16 [3]) was “Active”, the Activity (HT-29) was “Active” and the Activity (MCF7 [4]) was “Active”. The Activity (9L-2) was “inactive”.
In the case of `[O-]/[N+](=N\O)N1CCC(O)CC1`, the IC50 (B16 [2]) is reported as 928 nM and the IC50 (B16 [27]) is reported as 553 nM.
With `N[C@@H](CCC(=O)N[C@@H](CS(=O)(=O)CCO/N=[N+](\[O-])N1CCCC1)C(=O)NCC(=O)O)C(=O)O` the Activity (B16 [3]) was “Active”, the Activity (HT-29) was “Active” and the Activity (MCF7 [4]) was “Active”. For the same compound, the Activity (9L-2) was “inactive”.
For `CCOC(=O)N1CCN(/[N+]([O-])=N/Oc2ccc([N+](=O)[O-])cc2[N+](=O)[O-])CC1`, the IC50 (MCF7 [1]) was 993 nM, the IC50 (B16 [2]) was 1340 nM and the Drug metabolism [14] was “Metabolite_Notdetected”.
